Read-outs that look alike come from different tables or passages of the source.
Assays:
[1] = system: influenza A or B virus infection; format: in vivo, human
[2] = system: influenza A or B virus infection; format: in vivo, human; settings: adult patients
[3] = system: influenza A or B virus infection; assay: Test of comparison with oseltamivir phosphate for child patients; format: in vivo, human
[4] = format: in vivo, human
Protocol: The medicinal component was administered in a single inhaled dose of 5 mg, 10 mg, 20 mg, or 40 mg to healthy adult male subjects, and the pharmacokinetics of the medicinal component and the compound (III), which is an active metabolite of the medicinal component, were evaluated.
(§1) The administration was performed using the composition prepared according to Example 41.

[5] = clinical; format: in vivo, human; settings: for fe0-144 h [%]: cumulative urinary recovery until 144 hours; for fe0-144 h [%] / Cmax / half-life / AUC(0-inf): geometric mean; for Tmax / Cmax / half-life / AUC(0-inf): male, human, in vivo; for Tmax: inhaled or intranasal, single inhaled dose of medicinal component, plasma, median; for AUC(0-inf): read-out: AUC0-inf [ng/mL]
Protocol: The medicinal component was administered in a single inhaled dose of 80 mg or 120 mg to healthy adult male subjects, and the pharmacokinetics of the medicinal component were evaluated. In addition, the pharmacokinetics of the Compound (III), an active metabolite of the medicinal component, were also determined.
as §1

| SMILES | Difference (95% confidence interval, hours) in median value from the oseltamivir phosphate group ([1]; human, in vivo) | duration of influenza illness compared with the oseltamivir phosphate group ([1]; human, in vivo) | upper limit of the 95% confidence interval for the difference between the median values ([2]; every dose group (20 mg, 40 mg), non-inferiority margin 18 hours) | duration of the illness compared with the oseltamivir phosphate group ([3]; child patients, each of the 20 mg group and the 40 mg group) | time after administration at which plasma concentration was less than the quantification lower limit ([4]; each dose group (5, 10, 20, 40 mg), single inhaled dose) | dose proportionality of pharmacokinetic parameters (Cmax, AUC0-tz, AUC0-inf, Ae0-144h of medicinal component; Cmax, Ae0-144h of compound (III)) ([4]; single inhaled dose 5, 10, 20 or 40 mg) | time after administration at which almost not detected in urine ([4]; urinary excretion, single inhaled dose 5 to 40 mg) | fe0-144 h [%] ([5]; 80 mg group) | fe0-144 h [%] ([5]; 120 mg group) | Tmax ([5]; 80 mg group) | Tmax ([5]; 120 mg group) | Cmax ([5]; 80 mg group) | half-life ([5]; 80 mg group) | AUC(0-inf) ([5]; 80 mg group) | Cmax ([5]; 120 mg group) | half-life ([5]; 120 mg group) | AUC(0-inf) ([5]; 120 mg group) | Median value (hours) of the duration of influenza illness ([1]; 75 mg twice daily for 5 days) | Median value (hours) of the duration of influenza illness ([2]; 75 mg twice daily for 5 days) | Median value (hours) of the duration of influenza illness ([3]; child patients (9 or less years old), 2 mg/kg twice daily for 5 days) |
| --- | --- | --- | --- | --- | --- | --- | --- | --- | --- | --- | --- | --- | --- | --- | --- | --- | --- | --- | --- | --- |
| CCCCCCCC(=O)OC[C@@H](O)[C@@H](OC)[C@@H]1OC(C(=O)O)=C[C@H](NC(=N)N)[C@H]1NC(C)=O [Medicinal component, (2R,3R,4S)-3-acetamido-4-guanidino-2-[(1R,2R)-2-hydroxy-1-methoxy-3-(octanoyloxy)propyl]-3,4-dihydro-2H-pyran-6-carboxylic acid] | −1.4(−27.6 to 7.3) hours | almost equal | less than 18 hours | shorter | ≥ 24 h | Dose proportionality was observed | ≥ 24 h | 3.5% | 2.7% | 0.5 h | 0.5 h | 335 ng/mL | 5.66 h | 1270 ng·h/mL | 412 ng/mL | 2.87 h | 1560 ng·h/mL |  |  |  |
| CCOC(=O)C1=C[C@@H](OC(CC)CC)[C@H](NC(C)=O)[C@@H](N)C1 [Oseltamivir phosphate, oseltamivir phosphate, reference compound] |  |  |  |  |  |  |  |  |  |  |  |  |  |  |  |  |  | 87.4 h | 73.6 h | 87.3 h |
